Assay results taken from ChEMBL document CHEMBL5465560, “Selectivity Literature for EUbOPEN Chemogenomic Library” (2024).
One block for each compound: values may come before it.

Columns and labels:
[1] = target: Casein kinase II subunit alpha (Homo sapiens, UniProt P68400); assay: Selectivity interaction (Kinase panel (DSF assay)) EUB0001559a CSNK2A1
[2] = target: Receptor tyrosine-protein kinase erbB-4 (Homo sapiens, UniProt Q15303); assay: Selectivity interaction (Kinase panel (literature)) EUB0001199aCl ERBB4; details: at 1 µM
[3] = target: Tyrosine-protein kinase Blk (Homo sapiens) (UniProt P51451); assay: Selectivity interaction (KinomeScan (DiscoverX)) EUB0001079a BLK; details: at 1 µM
[4] = target: T1, Serine/threonine-protein kinase DCLK1 (Homo sapiens) (UniProt O15075); assay: Selectivity interaction (KinomeScan (DiscoverX)) EUB0001079a DCLK1; details: at 1 µM
T1 sequence (whole entry): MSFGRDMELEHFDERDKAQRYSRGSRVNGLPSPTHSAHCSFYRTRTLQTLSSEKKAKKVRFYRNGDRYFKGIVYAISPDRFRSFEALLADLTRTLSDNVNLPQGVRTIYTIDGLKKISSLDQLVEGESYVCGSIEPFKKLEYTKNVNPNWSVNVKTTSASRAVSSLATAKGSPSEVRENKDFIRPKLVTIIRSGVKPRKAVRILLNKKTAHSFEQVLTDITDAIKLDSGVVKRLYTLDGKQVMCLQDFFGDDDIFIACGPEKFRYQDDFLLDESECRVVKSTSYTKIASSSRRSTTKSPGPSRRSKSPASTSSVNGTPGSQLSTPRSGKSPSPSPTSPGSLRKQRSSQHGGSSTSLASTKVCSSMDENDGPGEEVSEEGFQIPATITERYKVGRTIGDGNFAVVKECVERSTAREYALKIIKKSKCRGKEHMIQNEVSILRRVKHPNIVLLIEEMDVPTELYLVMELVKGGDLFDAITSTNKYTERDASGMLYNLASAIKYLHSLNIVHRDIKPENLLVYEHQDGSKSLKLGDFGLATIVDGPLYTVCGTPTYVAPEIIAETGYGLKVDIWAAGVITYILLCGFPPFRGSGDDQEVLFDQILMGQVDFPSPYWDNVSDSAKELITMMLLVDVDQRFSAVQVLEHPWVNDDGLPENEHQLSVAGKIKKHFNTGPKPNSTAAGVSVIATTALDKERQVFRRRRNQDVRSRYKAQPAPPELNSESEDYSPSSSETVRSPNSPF

[5] = target: Serine/threonine-protein kinase NIM1 (Homo sapiens, UniProt Q8IY84); assay: Selectivity interaction (KinomeScan (DiscoverX)) EUB0000618a NIM1K; details: at 10 µM
[6] = target: Serine/threonine-protein kinase 25 (Homo sapiens) (UniProt O00506); assay: Selectivity interaction (KinomeScan (DiscoverX)) EUB0000607a STK25; details: at 10 µM
[7] = target: T2, NUAK family SNF1-like kinase 1 (Homo sapiens) (UniProt O60285); assay: Selectivity interaction (KinomeScan (DiscoverX)) EUB0000045b NUAK1
T2 sequence (whole entry): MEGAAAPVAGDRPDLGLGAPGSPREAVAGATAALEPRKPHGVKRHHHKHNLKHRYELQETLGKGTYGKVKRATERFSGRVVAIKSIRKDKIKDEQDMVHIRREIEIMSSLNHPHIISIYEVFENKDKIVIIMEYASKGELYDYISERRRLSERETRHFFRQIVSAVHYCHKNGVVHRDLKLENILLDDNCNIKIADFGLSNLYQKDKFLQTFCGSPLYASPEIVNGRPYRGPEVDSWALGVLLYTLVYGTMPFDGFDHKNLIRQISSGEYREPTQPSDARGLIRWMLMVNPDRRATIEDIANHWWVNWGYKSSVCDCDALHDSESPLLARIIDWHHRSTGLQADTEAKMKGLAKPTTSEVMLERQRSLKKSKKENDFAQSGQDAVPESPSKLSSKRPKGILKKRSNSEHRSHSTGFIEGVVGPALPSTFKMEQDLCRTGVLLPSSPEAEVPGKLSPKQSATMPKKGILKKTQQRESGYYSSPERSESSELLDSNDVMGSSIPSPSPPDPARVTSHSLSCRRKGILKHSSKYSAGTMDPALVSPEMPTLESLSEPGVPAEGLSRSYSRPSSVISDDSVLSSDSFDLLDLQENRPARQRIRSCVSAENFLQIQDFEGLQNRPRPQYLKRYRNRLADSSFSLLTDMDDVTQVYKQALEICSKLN

[8] = target: T2, NUAK family SNF1-like kinase 1 (Homo sapiens); assay: Selectivity interaction (KinomeScan (DiscoverX)) EUB0001049a NUAK1; details: at 1 µM
[9] = target: T3, 5-hydroxytryptamine receptor 3A (Homo sapiens) (UniProt P46098); assay: Selectivity interaction (Panel of kinases, GPCRs, ion channels and transporters (enzymatic assay)) EUB0000223bCl HTR3A
T3 sequence (whole entry): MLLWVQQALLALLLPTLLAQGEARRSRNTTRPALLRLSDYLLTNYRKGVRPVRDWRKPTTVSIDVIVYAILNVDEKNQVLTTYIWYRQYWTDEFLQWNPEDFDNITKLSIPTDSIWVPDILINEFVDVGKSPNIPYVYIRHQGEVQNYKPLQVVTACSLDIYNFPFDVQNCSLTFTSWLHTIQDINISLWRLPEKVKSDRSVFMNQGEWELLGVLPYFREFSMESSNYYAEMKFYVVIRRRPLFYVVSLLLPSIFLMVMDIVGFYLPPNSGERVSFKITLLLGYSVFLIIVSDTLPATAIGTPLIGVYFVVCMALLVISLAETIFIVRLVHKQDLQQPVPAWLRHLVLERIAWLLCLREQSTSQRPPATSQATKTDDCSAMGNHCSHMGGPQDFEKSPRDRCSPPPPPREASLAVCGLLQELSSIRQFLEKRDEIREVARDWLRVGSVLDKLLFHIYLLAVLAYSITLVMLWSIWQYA

[10] = target: Mitogen-activated protein kinase kinase kinase 4 (Homo sapiens) (UniProt Q9Y6R4); assay: Selectivity interaction (KinomeScan (DiscoverX)) EUB0000666a MAP3K4; details: at 10 µM
Sequence of Mitogen-activated protein kinase kinase kinase 4 (Homo sapiens) (Q9Y6R4 whole entry): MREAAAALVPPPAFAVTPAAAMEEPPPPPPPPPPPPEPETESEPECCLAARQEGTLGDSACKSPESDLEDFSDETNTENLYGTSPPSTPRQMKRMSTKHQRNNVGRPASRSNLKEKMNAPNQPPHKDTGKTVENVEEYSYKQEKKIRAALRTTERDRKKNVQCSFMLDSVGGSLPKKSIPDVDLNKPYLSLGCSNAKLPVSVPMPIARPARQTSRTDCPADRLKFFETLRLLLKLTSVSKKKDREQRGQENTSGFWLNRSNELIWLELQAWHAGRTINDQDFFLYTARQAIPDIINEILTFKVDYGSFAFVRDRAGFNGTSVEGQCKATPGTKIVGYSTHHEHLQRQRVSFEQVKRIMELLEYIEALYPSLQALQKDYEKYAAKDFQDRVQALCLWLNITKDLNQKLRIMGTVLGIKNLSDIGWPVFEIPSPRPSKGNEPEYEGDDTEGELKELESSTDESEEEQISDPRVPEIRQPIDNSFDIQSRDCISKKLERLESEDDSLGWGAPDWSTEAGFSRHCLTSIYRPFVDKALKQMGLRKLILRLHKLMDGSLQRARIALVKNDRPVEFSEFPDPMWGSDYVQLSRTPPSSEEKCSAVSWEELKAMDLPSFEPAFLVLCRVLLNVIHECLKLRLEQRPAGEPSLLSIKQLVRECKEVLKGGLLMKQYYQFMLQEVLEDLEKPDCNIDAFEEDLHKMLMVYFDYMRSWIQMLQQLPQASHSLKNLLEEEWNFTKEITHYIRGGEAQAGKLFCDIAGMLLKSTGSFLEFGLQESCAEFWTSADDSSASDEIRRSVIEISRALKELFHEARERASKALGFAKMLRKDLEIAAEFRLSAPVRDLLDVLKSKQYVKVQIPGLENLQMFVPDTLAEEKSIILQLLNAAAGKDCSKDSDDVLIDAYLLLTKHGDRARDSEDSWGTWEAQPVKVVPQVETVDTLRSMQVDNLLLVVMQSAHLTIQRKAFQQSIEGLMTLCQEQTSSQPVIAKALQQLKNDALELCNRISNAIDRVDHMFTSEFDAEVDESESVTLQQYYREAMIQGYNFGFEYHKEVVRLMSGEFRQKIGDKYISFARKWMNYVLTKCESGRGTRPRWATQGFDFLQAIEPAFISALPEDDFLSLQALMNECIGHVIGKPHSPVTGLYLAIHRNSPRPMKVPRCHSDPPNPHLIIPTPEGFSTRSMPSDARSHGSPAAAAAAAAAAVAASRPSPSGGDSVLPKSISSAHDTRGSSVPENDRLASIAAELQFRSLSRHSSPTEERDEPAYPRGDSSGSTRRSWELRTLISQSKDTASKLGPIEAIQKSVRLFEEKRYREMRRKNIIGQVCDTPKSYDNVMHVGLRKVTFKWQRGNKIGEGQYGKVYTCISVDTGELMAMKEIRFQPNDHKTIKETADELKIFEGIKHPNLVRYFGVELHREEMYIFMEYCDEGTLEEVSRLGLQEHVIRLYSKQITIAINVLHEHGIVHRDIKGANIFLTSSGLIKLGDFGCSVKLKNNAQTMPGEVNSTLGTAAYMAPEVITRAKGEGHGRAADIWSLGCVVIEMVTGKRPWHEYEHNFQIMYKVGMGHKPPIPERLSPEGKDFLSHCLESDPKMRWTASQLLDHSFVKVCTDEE

Sequence of Casein kinase II subunit alpha (P68400 whole entry, looked up): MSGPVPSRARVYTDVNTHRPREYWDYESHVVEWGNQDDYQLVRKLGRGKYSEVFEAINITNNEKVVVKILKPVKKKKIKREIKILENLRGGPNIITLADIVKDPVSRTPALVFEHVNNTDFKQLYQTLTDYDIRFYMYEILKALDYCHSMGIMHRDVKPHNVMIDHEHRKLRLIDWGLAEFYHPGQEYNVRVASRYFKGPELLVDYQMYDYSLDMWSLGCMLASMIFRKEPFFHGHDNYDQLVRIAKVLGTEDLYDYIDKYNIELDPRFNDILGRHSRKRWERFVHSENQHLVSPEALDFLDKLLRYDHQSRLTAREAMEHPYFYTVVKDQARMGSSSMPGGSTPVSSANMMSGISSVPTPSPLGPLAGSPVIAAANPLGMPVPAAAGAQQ
Sequence of Receptor tyrosine-protein kinase erbB-4 (Q15303 whole entry): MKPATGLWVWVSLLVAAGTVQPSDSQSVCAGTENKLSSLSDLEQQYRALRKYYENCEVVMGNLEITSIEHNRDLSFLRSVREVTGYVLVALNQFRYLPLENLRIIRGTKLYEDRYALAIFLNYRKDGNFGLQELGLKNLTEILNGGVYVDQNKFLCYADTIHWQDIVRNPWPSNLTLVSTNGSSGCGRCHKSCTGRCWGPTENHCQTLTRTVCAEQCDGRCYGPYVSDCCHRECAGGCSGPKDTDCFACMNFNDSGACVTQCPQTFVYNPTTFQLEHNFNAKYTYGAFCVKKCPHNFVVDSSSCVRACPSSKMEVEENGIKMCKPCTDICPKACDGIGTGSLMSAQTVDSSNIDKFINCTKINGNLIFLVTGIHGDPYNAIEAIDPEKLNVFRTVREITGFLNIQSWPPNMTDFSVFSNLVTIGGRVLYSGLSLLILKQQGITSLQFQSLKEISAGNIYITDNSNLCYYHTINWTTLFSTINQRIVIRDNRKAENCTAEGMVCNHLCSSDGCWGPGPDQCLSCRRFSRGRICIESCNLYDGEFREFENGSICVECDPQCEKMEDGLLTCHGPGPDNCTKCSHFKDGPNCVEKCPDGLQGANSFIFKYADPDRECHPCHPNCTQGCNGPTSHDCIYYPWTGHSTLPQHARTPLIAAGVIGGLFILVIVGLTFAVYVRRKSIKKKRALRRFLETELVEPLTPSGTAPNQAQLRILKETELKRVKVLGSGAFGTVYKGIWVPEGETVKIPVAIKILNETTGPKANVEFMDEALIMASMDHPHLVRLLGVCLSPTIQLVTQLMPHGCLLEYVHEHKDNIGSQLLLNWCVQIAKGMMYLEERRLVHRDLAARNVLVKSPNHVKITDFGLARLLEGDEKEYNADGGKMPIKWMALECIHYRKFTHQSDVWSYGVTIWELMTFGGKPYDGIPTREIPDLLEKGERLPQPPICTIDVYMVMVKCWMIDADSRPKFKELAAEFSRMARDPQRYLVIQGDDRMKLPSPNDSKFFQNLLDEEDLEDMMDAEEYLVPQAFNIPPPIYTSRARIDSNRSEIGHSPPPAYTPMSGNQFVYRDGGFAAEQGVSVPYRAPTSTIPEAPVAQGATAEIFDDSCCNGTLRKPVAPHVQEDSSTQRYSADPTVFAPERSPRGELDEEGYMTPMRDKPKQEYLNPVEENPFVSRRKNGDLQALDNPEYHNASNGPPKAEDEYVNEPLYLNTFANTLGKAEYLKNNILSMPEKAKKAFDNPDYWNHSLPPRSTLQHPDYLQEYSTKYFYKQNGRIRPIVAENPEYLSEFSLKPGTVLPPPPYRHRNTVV
Sequence of Serine/threonine-protein kinase NIM1 (Q8IY84 whole entry): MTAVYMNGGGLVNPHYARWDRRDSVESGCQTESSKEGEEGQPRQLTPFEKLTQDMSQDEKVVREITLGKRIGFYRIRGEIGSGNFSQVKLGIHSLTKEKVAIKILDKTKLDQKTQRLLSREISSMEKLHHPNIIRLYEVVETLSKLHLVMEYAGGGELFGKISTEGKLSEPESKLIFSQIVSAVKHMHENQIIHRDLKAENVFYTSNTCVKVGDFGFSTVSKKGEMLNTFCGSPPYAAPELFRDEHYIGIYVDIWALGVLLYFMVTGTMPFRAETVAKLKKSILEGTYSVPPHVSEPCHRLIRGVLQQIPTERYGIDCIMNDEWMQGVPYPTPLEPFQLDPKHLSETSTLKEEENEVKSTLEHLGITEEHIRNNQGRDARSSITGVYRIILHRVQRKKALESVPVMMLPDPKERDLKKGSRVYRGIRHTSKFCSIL
Sequence of Serine/threonine-protein kinase 25 (Homo sapiens) (O00506 whole entry, looked up): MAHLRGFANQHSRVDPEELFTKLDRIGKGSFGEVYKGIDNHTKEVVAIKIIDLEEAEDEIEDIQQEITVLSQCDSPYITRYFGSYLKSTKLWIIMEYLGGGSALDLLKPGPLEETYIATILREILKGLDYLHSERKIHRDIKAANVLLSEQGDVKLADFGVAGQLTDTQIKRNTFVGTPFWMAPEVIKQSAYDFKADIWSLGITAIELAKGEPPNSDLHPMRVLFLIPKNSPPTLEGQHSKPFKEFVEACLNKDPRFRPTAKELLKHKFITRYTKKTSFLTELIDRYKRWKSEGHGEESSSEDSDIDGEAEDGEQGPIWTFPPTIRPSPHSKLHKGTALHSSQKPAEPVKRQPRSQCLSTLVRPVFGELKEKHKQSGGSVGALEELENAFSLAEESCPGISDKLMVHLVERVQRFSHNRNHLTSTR
Sequence of Tyrosine-protein kinase Blk (Homo sapiens) (P51451 2-505 limits assumed): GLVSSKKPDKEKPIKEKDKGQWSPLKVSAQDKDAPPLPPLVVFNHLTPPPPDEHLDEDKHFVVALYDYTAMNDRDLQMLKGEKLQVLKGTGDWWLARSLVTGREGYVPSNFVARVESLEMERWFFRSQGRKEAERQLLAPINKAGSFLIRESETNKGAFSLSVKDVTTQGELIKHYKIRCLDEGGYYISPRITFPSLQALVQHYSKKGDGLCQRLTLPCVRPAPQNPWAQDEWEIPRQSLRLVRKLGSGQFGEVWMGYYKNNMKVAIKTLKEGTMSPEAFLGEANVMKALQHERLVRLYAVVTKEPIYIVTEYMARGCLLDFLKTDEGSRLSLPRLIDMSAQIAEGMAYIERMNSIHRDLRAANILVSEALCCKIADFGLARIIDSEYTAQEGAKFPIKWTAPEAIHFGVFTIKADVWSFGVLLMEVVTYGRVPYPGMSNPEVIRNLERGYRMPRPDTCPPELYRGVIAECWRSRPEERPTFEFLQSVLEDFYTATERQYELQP

dTM [1]: -0.4 K
Structure (SMILES): CN(C(=O)c1cnn2cccnc12)c1cc2c(cc1N1CCOCC1)C(=O)N(C[C@@H](F)C(C)(C)O)C2

% of inhibition [2]: 15%
Structure (SMILES): CN1Cc2nccc(-c3cn(C)nc3-c3ccc(F)cc3)c2C1=O

Structure (SMILES): Nc1cnc(N2CCc3cc(S(=O)(=O)Nc4c(F)cc(Cl)cc4F)cc(N4CCCC4=O)c32)nc1 [TP-020n]
% of control [3]: 100%
% of control [4]: 100%

Structure (SMILES): O[C@H]1CC[C@H](Nc2ncc3nc(Nc4c(F)cc(F)cc4F)n([C@H]4CCOC4)c3n2)CC1
% of control [5]: 100%

Structure (SMILES): CNC(=O)Nc1ccc(-c2nc(N3CC4CCC(C3)O4)c3cnn(C4CCC5(CC4)OCCO5)c3n2)cc1
% of control [6]: 91%

Structure (SMILES): C=CC(=O)Nc1cc(-n2c(=O)ccc3cnc4ccc(-c5ccc(NS(C)(=O)=O)cc5)cc4c32)ccc1C
% of control ([7]; at 1 µM): 100%
% of control ([7]; at 10 µM): 76%

Structure (SMILES): COc1cc(Nc2nc(C)cc(-c3cnn4nc(OC)ccc34)n2)cc(C(F)(F)F)c1
% of control [8]: 100%

Structure (SMILES): COc1cc(C(=O)N2CC[C@@H](O)[C@@H](N)C2)cc2nc(-c3cc4ccccc4n3CC3CC3)n(C)c12
pXC50 [9]: 5.9 M

Structure (SMILES): O=C(NOC[C@H](O)CO)c1ccc(F)c(F)c1Nc1ccc(I)cc1F
% of control [10]: 100%
